Tests used:
[1] = target: Serine/threonine-protein kinase mTOR (Homo sapiens, UniProt P42345); assay: Selectivity interaction (KinomeScan (DiscoverX)) EUB0000229b MTOR; conditions: at 10 µM
[2] = target: T1, Cyclin-dependent kinase-like 2 (Homo sapiens) (UniProt Q92772); assay: Selectivity interaction (KinomeScan (DiscoverX)) EUB0000092b CDKL2; conditions: at 10 µM
T1 sequence (whole entry): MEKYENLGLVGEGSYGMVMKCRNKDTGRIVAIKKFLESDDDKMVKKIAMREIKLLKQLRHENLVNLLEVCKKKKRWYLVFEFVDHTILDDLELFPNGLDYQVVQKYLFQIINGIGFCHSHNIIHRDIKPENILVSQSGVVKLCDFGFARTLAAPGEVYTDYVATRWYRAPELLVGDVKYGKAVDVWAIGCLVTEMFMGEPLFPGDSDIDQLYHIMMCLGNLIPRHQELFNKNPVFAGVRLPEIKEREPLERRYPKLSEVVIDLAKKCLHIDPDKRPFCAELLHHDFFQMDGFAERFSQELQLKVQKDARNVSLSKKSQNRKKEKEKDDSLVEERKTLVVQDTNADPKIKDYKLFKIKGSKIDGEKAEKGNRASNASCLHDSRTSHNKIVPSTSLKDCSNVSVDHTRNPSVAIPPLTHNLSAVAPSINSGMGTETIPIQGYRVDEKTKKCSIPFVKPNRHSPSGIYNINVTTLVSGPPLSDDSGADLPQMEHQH

[3] = target: Macrophage colony-stimulating factor 1 receptor (Homo sapiens) (UniProt P07333); assay: Selectivity interaction (ProQinase) EUB0000171b CSF1R
Sequence of Macrophage colony-stimulating factor 1 receptor (Homo sapiens) (P07333 whole entry): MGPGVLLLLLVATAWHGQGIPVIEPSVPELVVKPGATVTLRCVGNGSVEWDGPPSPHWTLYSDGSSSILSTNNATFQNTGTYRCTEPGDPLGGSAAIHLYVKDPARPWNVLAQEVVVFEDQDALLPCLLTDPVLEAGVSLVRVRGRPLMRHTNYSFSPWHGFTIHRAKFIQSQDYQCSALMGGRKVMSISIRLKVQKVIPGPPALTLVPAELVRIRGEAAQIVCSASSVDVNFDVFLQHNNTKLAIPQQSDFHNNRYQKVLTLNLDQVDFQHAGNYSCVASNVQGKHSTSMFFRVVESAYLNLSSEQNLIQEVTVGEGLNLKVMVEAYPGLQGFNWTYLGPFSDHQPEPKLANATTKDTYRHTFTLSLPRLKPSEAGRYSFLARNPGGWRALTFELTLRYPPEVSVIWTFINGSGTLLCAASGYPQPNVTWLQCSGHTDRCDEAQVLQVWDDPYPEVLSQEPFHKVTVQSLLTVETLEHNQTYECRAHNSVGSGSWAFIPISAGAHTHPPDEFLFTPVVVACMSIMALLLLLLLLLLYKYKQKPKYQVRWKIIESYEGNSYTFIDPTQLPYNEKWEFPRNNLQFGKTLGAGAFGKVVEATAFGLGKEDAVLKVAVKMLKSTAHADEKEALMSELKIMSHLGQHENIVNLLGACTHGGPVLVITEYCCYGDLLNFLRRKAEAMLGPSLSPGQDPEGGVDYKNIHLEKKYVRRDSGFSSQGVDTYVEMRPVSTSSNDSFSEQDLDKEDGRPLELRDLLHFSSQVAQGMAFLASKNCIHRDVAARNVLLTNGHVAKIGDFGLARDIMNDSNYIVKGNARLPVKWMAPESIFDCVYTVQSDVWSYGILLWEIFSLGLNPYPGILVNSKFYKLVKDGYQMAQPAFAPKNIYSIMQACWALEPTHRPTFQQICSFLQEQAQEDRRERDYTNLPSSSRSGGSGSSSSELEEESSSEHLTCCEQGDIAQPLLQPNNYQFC

[4] = target: Calcium/calmodulin-dependent protein kinase type II subunit beta (Homo sapiens) (UniProt Q13554); assay: Selectivity interaction (Kinase panel (Z-LYTE Assay)) EUB0001632a CAMK2B; conditions: at 10 µM
Sequence of Calcium/calmodulin-dependent protein kinase type II subunit beta (Homo sapiens) (Q13554 whole entry): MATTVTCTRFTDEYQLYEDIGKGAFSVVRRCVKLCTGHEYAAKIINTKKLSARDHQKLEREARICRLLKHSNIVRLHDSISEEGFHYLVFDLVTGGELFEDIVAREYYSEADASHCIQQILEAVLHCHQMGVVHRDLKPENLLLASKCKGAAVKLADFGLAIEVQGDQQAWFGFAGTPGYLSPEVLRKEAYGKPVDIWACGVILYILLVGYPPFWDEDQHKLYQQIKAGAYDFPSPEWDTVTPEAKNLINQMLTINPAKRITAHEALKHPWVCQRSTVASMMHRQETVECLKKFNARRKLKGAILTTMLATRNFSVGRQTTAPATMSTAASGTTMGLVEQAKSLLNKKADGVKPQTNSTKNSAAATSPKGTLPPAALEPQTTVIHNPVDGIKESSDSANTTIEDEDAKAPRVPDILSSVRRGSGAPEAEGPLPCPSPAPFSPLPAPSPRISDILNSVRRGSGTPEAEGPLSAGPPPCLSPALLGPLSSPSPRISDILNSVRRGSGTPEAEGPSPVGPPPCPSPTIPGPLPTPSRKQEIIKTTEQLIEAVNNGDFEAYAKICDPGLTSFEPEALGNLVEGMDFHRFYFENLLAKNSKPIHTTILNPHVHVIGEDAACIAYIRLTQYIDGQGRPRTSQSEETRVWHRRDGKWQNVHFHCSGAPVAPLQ

[5] = target: Macrophage colony-stimulating factor 1 receptor (Homo sapiens) (UniProt P07333); assay: Selectivity interaction (Kinase panel (Invitrogen)) EUB0000639a CSF1R; conditions: at 200 nM
[6] = target: T2, Tyrosine-protein kinase JAK3 (Homo sapiens) (UniProt P52333); assay: Selectivity interaction (Kinase panel (literature)) EUB0001199aCl JAK3; conditions: at 1 µM
T2 sequence (whole entry): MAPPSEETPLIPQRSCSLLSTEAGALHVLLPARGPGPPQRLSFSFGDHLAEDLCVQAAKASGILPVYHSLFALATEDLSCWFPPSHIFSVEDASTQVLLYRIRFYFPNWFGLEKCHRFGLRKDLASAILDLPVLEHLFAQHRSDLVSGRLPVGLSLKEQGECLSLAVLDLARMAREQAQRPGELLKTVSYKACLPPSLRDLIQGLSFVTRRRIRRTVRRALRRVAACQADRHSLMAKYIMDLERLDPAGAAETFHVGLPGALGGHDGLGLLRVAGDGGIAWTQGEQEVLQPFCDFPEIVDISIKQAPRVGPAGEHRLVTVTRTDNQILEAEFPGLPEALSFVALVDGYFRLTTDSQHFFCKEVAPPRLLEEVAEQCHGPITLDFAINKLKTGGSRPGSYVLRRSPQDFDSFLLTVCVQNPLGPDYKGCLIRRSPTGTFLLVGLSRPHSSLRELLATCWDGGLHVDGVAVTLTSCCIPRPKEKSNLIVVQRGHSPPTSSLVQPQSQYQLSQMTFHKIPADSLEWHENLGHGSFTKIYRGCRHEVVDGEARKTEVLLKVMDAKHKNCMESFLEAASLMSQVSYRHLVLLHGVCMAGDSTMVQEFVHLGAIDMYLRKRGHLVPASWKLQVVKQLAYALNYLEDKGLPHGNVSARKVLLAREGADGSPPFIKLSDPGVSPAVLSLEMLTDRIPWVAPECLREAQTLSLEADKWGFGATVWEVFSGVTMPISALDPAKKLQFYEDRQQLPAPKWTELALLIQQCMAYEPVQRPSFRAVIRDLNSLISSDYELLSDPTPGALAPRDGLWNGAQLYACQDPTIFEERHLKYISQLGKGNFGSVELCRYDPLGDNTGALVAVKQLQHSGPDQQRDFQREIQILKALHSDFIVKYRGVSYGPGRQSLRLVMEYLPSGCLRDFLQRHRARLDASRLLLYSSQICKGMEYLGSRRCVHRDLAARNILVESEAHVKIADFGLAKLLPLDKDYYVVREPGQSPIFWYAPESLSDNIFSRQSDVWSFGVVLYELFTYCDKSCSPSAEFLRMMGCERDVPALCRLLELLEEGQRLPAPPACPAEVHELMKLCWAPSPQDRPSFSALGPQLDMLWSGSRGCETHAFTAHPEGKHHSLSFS

[7] = target: RAC-beta serine/threonine-protein kinase (Homo sapiens) (UniProt P31751); assay: Selectivity interaction (Kinase panel (literature)) EUB0001199aCl AKT2; conditions: at 1 µM
Sequence of RAC-beta serine/threonine-protein kinase (Homo sapiens) (P31751 whole entry): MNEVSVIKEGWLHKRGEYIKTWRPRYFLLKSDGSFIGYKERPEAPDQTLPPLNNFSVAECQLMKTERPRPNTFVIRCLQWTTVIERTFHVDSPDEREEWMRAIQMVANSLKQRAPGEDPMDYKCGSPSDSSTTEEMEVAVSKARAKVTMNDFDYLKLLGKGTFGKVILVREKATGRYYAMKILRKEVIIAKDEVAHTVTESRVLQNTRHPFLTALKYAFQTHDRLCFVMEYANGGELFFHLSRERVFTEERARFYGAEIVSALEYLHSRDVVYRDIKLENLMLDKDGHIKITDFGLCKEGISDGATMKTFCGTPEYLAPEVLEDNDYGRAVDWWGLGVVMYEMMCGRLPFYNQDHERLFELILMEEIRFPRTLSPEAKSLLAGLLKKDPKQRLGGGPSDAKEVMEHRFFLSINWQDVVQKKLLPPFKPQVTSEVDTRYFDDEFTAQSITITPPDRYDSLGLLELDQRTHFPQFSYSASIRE

[8] = target: Tyrosine-protein kinase Fgr (Homo sapiens) (UniProt P09769); assay: Selectivity interaction (ActivX KiNativ screen (ex vivo kinase selectivity in human PBMCs)) EUB0001619a FGR; assay type: cell-based; conditions: PBMC, at 1 µM
Sequence of Tyrosine-protein kinase Fgr (Homo sapiens) (P09769 2-529 limits assumed): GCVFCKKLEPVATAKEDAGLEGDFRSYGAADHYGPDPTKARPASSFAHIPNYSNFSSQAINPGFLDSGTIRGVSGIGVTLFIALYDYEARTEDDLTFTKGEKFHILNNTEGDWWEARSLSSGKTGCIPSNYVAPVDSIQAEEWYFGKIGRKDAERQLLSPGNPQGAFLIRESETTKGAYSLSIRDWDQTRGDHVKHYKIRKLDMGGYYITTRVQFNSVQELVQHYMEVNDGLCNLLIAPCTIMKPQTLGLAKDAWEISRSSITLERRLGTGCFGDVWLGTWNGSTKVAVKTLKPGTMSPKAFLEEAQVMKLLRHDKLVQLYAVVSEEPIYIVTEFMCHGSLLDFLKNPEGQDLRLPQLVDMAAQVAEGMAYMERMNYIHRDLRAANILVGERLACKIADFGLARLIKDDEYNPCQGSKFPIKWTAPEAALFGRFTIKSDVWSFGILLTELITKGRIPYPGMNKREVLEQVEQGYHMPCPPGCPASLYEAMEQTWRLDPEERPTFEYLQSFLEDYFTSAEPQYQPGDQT

[9] = target: T3, Phosphatidylinositol 5-phosphate 4-kinase type-2 gamma (Homo sapiens) (UniProt Q8TBX8); assay: Selectivity interaction (KinomeScan (DiscoverX)) EUB0001619a PIP4K2C; conditions: at 1 µM
T3 sequence (whole entry): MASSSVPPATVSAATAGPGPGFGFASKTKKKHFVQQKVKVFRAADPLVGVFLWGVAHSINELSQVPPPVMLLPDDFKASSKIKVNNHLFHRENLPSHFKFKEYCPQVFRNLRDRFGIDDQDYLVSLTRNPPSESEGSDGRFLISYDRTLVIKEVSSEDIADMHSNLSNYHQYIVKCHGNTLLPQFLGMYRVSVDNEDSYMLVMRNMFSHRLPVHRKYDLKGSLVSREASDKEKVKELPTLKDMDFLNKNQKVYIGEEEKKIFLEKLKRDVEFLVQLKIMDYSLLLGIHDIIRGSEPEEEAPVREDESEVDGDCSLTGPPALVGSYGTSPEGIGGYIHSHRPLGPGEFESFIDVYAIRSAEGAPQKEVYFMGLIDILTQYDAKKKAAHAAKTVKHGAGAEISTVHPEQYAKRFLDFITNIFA

Compound: COc1cc(N(C)c2ccnc3ccc(C(F)(F)F)cc23)cc(OC)c1OC
- % binding [1]: 94%

Compound: CCC(=O)N1CCN(c2ccc(-n3c(=O)ccc4cnc5ccc(-c6cnc7ccccc7c6)cc5c43)cc2C(F)(F)F)CC1
- % of control [2]: 58%

Compound: C=CC(=O)Nc1cccc(C(=O)Nc2ccc(Nc3cc(-c4[nH]c(SC)nc4C)ccn3)cc2)c1
- % of control ([3]; at 1 µM): 106%
- % of control ([3]; at 5 µM): 69%

Compound: Cn1cc(-n2cnc3c(NCc4nc5cc(Cl)c(Cl)cc5[nH]4)nc(N4CCOCC4)nc32)cn1
- % of control [4]: 1.33%

Compound: CC[C@@H]1[C@H](F)C(=O)N[C@@H]1COc1nccc2cc(C(N)=O)c(OC)cc12 [ZIMLOVISERTIB]
- % of inhibition [5]: 5.5%

Compound: CN1Cc2nccc(-c3cn(C)nc3-c3ccc(F)cc3)c2C1=O
- % of inhibition [6]: -2%
- % of inhibition [7]: 7%

Compound: N#Cc1cccc(-c2c[nH]c3ncnc(N4CCOCC4)c23)c1
- % of inhibition [8]: 2%
- % of control [9]: 21%
